From patent US8420654B2 (Eli Lilly and Company, priority 2008, dated 2013) come the findings set out here.

As a reminder, the Kb is the equilibrium dissociation constant of an antagonist, usually derived from a functional assay. What is called EC50 is the concentration needed to bring the measured effect to its halfway point.

One data set deals with T1, rCB-1 (Rattus norvegicus, UniProt P20272).
T1 construct: purchased Applied Cell Sciences, Rockville, Md; host or cells: CHO cells (membranes)
The data set can be described thus: rCB1-CHO antagonist mode SPA GTP-γ-35S binding assay. To be noted: rat CB-1 CHO membranes, antagonist mode vs methanandamide; read-out: rCB-1 SPA GTPγS CHO Membrane Antagonist Kb. The data set is classed as biochemical. As to the method:
(§1) Compounds of the present invention may be tested for functional activity at the CB-1 and CB-2 receptors in both agonist and antagonist modes using SPA (Scintillation Proximity Assay) based GTP-γ-^35S binding assays. All assay components are prepared in assay buffer (20 mM HEPES, 100 mM NaCl, 5 mM MgCl2, pH 7.4) at room temperature. Semi-log dilutions of test compound are prepared in assay buffer containing BSA (0.125% final conc.) for the agonist mode assays. For the antagonist mode assays, test compounds are prepared in the same manner but also include an 80% efficacious dose of a full agonist (methanandamide). GTP-γ^35S binding for the antagonist assay may be measured in a 96 well format using a modification of an antibody capture technique previously described. (DeLapp, N W, et al. (1999) J Pharmacol Exp Ther 289:946-955.) The CB-2 receptor agonist activity may be measured using a similar method using hCB2-Sf9 membranes. The CB-1 receptor agonist activity may be measured using a whole membrane capture technique using hCB1-CHO membranes. All incubations are done at room temperature.
(§2) hCB1-CHO and rCB1-CHO Antagonist Assays:
hCB1-CHO or rCB1-CHO membranes (Applied Cell Sciences, Rockville, Md.) and GDP (1 μM final) are added to ice cold assay buffer and homogenized. […] Plates are then centrifuged at 700×g for 10 min. and the radioactivity counted.
Data are analyzed as follows: Background is subtracted from all wells. […] Percent antagonist inhibition is calculated by first normalizing the data to the signal generated by a saturating concentration of the full agonist (methanandamide). Then the data are analyzed using a 4-parameter logistic reduced fit (Activity Base™ and XLFit3™ from IDBS, Emeryville, Calif.). Kb values are determined using a modification of the Cheng-Prusoff relationship: Kb=IC50/(1+[agonist]/EC50), where “IC50” is determined from a four parameter fit of displacement curves, “[agonist]” is the agonist challenge concentration (nM), and “EC50” is determined from a four parameter fit of a full agonist concentration response curve (Cheng and Prusoff 1973). […]

The target of data set [1] is T2, hCB-1 (Homo sapiens, UniProt P21554).
T2 construct: purchased Applied Cell Sciences, Rockville, Md; host or cells: CHO cells (membranes)
T2 sequence (P21554 whole entry): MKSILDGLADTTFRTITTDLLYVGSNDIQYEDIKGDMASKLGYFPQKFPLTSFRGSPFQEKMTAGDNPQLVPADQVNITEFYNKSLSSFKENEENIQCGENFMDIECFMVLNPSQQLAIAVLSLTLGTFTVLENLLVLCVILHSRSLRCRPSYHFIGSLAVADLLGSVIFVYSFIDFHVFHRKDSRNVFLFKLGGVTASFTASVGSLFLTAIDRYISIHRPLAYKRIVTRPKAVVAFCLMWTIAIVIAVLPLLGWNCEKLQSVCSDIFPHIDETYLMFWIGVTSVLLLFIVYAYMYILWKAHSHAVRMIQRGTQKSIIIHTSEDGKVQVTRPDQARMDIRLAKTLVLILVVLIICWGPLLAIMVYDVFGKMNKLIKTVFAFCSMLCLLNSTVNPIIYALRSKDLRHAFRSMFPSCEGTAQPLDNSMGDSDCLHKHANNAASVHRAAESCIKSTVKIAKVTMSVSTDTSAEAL
The data set is described as follows: hCB1-CHO antagonist mode SPA GTP-γ-35S binding assay. The data set is classed as biochemical. To be noted: human CB-1 CHO membranes, antagonist mode vs methanandamide; read-out: hCB-1 SPA GTPγS CHO Membrane Antagonist Kb. As to the method: as §1, §2
hCB1-CHO or rCB1-CHO membranes (Applied Cell Sciences, Rockville, Md.) and GDP (1 μM final) are added to ice cold assay buffer and homogenized. Diluted compounds, GTP-γ-^35S (500 nM final conc.) and membranes are added to wells of an assay plate and incubated for 30 min. at room temperature. Next, a mixture containing Nonidet P40 detergent (0.2% final conc.), rabbit polyclonal IgG Gαi-3 antibody (provided by Covance, Princeton, N.J.), and 1.25 mg anti-rabbit antibody scintillation proximity assay beads (GE Healthcare, Piscataway, N.J.) is added. The plates are sealed, vortexed, and incubated for an additional 2 hr. Plates are then centrifuged at 700×g for 10 min. and the radioactivity counted.
Data are analyzed as follows: Background is subtracted from all wells. […] Percent antagonist inhibition is calculated by first normalizing the data to the signal generated by a saturating concentration of the full agonist (methanandamide). Then the data are analyzed using a 4-parameter logistic reduced fit (Activity Base™ and XLFit3™ from IDBS, Emeryville, Calif.). Kb values are determined using a modification of the Cheng-Prusoff relationship: Kb=IC50/(1+[agonist]/EC50), where “IC50” is determined from a four parameter fit of displacement curves, “[agonist]” is the agonist challenge concentration (nM), and “EC50” is determined from a four parameter fit of a full agonist concentration response curve (Cheng and Prusoff 1973). Mean Kb values are calculated as a mean of at least three independent determinations±standard error of the mean (SEM). […]
On the technique in general: GTPγS resists hydrolysis and so accumulates on activated G proteins.

Data set [2] addresses T3, hCB-2 (Homo sapiens, UniProt P34972).
T3 construct: purchased Perkin Elmer, Boston, Mass; host or cells: Sf9 insect cells (membranes)
The data set is described as follows: hCB2-Sf9 antagonist mode SPA GTP-γ-35S binding assay. The data set is classed as biochemical. To be noted: human CB-2 Sf9 membranes, antagonist mode vs methanandamide; read-out: hCB-2 SPA GTPγS Sf9 Membrane Antagonist Kb. Here is the method: as §1
hCB1-Sf9 and hCB2-Sf9 antagonist Assays:
hCB1-5f9 and hCB2-5f9 membranes (Perkin Elmer, Boston, Mass.) are prepared essentially as above with 1 μM (final conc.) GDP for hCB1-5f9 and 0.05 μM (final conc.) GDP for hCB2-5f9. The assay is run essentially as described for the CHO membranes above. Diluted membranes are pre-incubated with test compound for 15 min., which is followed by addition of GTP-γ-^35S and a further 35 min. incubation. Nonidet P40 and anti-Gi-antibody are added sequentially with a 15 min. incubation after each addition. The SPA beads are then added, the plates are sealed and vortexed, and then incubated at room temperature for 1 hr.
Data are analyzed as follows: Background is subtracted from all wells. Percent agonist efficacy is determine by normalizing agonist/inverse agonist dose response data to the response obtained for a full agonist (methanandamide). Percent antagonist inhibition is calculated by first normalizing the data to the signal generated by a saturating concentration of the full agonist (methanandamide). Then the data are analyzed using a 4-parameter logistic reduced fit (Activity Base™ and XLFit3™ from IDBS, Emeryville, Calif.). Kb values are determined using a modification of the Cheng-Prusoff relationship: Kb=IC50/(1+[agonist]/EC50), where “IC50” is determined from a four parameter fit of displacement curves, “[agonist]” is the agonist challenge concentration (nM), and “EC50” is determined from a four parameter fit of a full agonist concentration response curve (Cheng and Prusoff 1973). Mean Kb values are calculated as a mean of at least three independent determinations±standard error of the mean (SEM). […]

Data set [3] concerns the target T2, hCB-1. The data set can be described thus: hCB1-CHO agonist mode SPA GTP-γ-35S binding assay. To be noted: for EC50: human CB-1 CHO membranes, agonist mode (inverse agonism), read-out: hCB-1 SPA GTPγS CHO Membrane Agonist Relative EC50 inverse; for hCB-1 SPA GTPγS CHO Membrane Agonist % Relative Efficacy: normalized to full agonist methanandamide, below zero = inverse agonist. The data set is classed as biochemical. As to the method:
as §1
hCB1-CHO membrane, GDP (1 μM final conc.), and saponin (10 ng/mL final conc., Sigma, St Louis, Mo.) are combined and prepared on ice as for the antagonist assays, above. Diluted test compounds, GTP-γ-^35S (500 nM final conc.) and membranes are combined in the assay plate and incubated for 30 min. Then 1 mg/well Wheatgerm Agglutinin SPA beads (GE Healthcare, Piscataway, N.J.) are added, plates are sealed and vortexed and incubate for 1 hr. before spinning and counting in the same fashion as for the antagonist assays, above.
(§3) Data are analyzed as follows: Background is subtracted from all wells. Percent agonist efficacy is determine by normalizing agonist/inverse agonist dose response data to the response obtained for a full agonist (methanandamide). Percent antagonist inhibition is calculated by first normalizing the data to the signal generated by a saturating concentration of the full agonist (methanandamide). Then the data are analyzed using a 4-parameter logistic reduced fit (Activity Base™ and XLFit3™ from IDBS, Emeryville, Calif.). Kb values are determined using a modification of the Cheng-Prusoff relationship: Kb=IC50/(1+[agonist]/EC50), where “IC50” is determined from a four parameter fit of displacement curves, “[agonist]” is the agonist challenge concentration (nM), and “EC50” is determined from a four parameter fit of a full agonist concentration response curve (Cheng and Prusoff 1973). Mean Kb values are calculated as a mean of at least three independent determinations±standard error of the mean (SEM). (Cheng Y C and Prusoff W H. (1973), Biochem Pharmacol 22:3099-3108.) Exemplified compounds are found to be potent CB-1 inverse agonists (Kb≦10 nM, typically <2 nM) and to be selective over the CB-2 receptor (Kb CB-2/Kb CB-1>500, typically >1000).

The target of data set [4] is T3, hCB-2. The data set can be described thus: hCB2-Sf9 agonist mode SPA GTP-γ-35S binding assay. The data set is classed as biochemical. To be noted: human CB-2 Sf9 membranes, read-out: hCB-2 SPA GTPγS Sf9 Membrane Agonist Relative EC50. As to the method: as §1
The hCB2-5f9 assay is run essentially as for the hCB1-sf9 and hCB2-sf9 antagonist assays above, with no challenging agonist added. 1 μM (final conc.) GDP is added to the membrane solution and nonidet P40, anti-Gi-antibody, and SPA bead are added together in a cocktail.
as §3

Another data set deals with CYP3A. The data set can be described thus: Human CYP fingerprinting, ketoconazole inhibitor. To be noted: 4 μM, human liver microsomes, 30 min, ketoconazole 10 μM. It counts as in vitro ADME. Here is the method: (§4) CYP fingerprinting is well established technique and is used as an indication of potential risk of drug-drug interactions in the pharmaceutical sciences. Compounds of the present invention may be assayed by well known methods, essentially as follows: Compounds are incubated at 37° C. at a final concentration of 4 μM with pooled, mixed gender, human liver microsomes and 1 mM NADPH ([…]) (final conc.) for 0 and 30 min. without any CYP inhibitor and with each CYP inhibitor in separate incubations for 30 min. Each inhibitor is specific for an individual cytochrome P450. The specific inhibitors used for CYPs 2C9, 2D6 and 3A were sulfaphenazole, quinidine and ketoconazole, respectively. Ketoconazole (CYP3A) is made up at 25 mM in DMSO and then diluted in buffer to a final concetration of 10 μM. Quinidine (CYP2D6) is made up at 5 mM in 50/50 acetonitrile/water and then diluted in buffer to a final concetration of 10 μM. Sulfaphenazole (CYP2C9) is made up at 100 mM in DMSO and then diluted in buffer to a final concetration of 5 μM. Samples are analyzed by LC-MS in positive or negative electrospray mode using a Waters Acquity Ultra Performance LC coupled to a MicroMass Q-T of-2 mass spectrometer.
(§5) Data are analyzed using MetaboLynx™ version 4.1. With inhibitor present, a reduction in metabolite peak area of less than 30% (relative to the uninhibited control incubation) receives a designation of low risk of Drug Drug Interaction (DDI), a reduction in peak area between 30% and 70% receives a moderate risk of DDI and a reduction of more than 70% receives a high risk of DDI.
In general terms: Liver microsomes are vesicles of endoplasmic reticulum, rich in cytochrome P450 enzymes.

A further data set has as its target T4, CYP2D6 (Homo sapiens, UniProt P10635).
T4 construct: pooled, mixed gender, human liver microsomes; from tissue; host or cells: pooled, mixed gender human liver microsomes
The data set is described as follows: Human CYP fingerprinting, quinidine inhibitor. The data set is classed as in vitro ADME. To be noted: 4 μM, human liver microsomes, 30 min, quinidine 10 μM. Here is the method: as §4, §5

The target of the next data set is T5, CYP2C9 (Homo sapiens, UniProt P11712).
T5 construct: pooled, mixed gender, human liver microsomes; from tissue; host or cells: pooled, mixed gender human liver microsomes
T5 sequence (P11712 whole entry): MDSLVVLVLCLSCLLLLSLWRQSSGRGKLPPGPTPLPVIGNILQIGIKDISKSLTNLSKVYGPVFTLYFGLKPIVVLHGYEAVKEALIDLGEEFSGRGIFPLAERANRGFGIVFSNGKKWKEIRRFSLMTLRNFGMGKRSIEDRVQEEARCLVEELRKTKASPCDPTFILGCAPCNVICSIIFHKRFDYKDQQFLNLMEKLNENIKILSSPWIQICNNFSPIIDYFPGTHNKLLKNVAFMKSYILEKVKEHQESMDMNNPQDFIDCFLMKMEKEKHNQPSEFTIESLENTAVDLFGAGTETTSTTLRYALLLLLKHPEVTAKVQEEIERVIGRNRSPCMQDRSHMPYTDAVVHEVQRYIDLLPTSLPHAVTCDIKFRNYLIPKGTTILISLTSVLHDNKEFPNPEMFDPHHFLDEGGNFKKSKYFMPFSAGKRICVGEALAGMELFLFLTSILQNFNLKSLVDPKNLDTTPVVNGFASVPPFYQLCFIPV
The data set can be described thus: Human CYP fingerprinting, sulfaphenazole inhibitor. It counts as in vitro ADME. To be noted: 4 μM, human liver microsomes, 30 min, sulfaphenazole 5 μM. As to the method:
as §4, §5

Structures are written as SMILES.

T3 sequence (P34972 whole entry): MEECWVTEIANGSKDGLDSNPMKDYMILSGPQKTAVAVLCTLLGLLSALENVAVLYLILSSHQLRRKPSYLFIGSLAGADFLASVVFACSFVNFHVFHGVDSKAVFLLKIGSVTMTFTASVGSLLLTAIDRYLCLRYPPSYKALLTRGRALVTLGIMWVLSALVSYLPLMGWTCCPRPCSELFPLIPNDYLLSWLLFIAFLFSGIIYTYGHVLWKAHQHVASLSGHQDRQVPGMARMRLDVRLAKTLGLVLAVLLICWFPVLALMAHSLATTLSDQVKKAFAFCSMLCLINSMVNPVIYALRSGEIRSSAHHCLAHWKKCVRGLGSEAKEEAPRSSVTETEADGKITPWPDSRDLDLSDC
T4 sequence (P10635 whole entry): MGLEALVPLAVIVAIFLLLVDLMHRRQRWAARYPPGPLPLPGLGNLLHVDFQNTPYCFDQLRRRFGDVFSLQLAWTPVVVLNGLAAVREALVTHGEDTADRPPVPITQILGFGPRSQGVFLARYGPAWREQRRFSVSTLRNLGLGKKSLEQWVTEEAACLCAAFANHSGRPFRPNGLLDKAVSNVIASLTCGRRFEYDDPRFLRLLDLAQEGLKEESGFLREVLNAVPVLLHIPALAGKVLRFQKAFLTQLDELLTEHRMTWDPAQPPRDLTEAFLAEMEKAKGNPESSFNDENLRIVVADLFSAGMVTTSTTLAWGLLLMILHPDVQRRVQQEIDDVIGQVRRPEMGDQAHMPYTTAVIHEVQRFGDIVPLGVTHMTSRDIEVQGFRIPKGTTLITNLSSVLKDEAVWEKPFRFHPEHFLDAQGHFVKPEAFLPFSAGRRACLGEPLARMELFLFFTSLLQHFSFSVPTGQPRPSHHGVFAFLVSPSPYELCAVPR
T1 sequence (P20272 whole entry): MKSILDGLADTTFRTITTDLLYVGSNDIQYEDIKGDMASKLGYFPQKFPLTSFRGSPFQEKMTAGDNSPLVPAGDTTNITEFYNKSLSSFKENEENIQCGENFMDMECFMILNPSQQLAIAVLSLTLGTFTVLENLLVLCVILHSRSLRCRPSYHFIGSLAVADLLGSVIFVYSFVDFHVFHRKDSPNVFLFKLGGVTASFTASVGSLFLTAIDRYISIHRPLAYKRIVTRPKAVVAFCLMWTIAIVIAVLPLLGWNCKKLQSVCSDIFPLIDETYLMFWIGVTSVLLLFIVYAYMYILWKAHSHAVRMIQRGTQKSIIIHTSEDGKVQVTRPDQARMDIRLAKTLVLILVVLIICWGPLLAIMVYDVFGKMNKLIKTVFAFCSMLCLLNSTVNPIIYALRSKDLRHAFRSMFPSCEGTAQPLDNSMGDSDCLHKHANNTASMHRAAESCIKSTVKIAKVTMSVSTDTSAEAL

For `CC(C)(N[C@@H]1C[C@H](c2ccccc2)N(c2ccc(OC(F)(F)F)cc2)C1=O)c1ccnc(C(F)(F)F)n1` [Example 4], the Kb at rCB-1 is 0.176 nM; at hCB-1 [1] it was 0.83 nM; at hCB-2 [2], 288 nM. For the same compound, the EC50 at hCB-1 [3] was 2.52 nM; on hCB-2 [4], 288 nM. In addition, at hCB-1 [3], the “hCB-1 SPA GTPγS CHO Membrane Agonist % Relative Efficacy” value is listed as −105%. Also, the “Risk of Drug Drug Interaction (DDI) CYP3A” value with CYP3A was “low (a reduction in metabolite peak area of less than 30% (relative to the uninhibited control incubation) receives a designation of low risk of Drug Drug Interaction (DDI))”. Besides, at CYP2D6, the “Risk of Drug Drug Interaction (DDI) CYP2D6” value was “low (a reduction in metabolite peak area of less than 30% (relative to the uninhibited control incubation) receives a designation of low risk of Drug Drug Interaction (DDI))”. In addition, the “Risk of Drug Drug Interaction (DDI) CYP2C9” value at CYP2C9 is reported as “low (a reduction in metabolite peak area of less than 30% (relative to the uninhibited control incubation) receives a designation of low risk of Drug Drug Interaction (DDI))”.

As to `CC(C)(N[C@@H]1C[C@H](c2cccc(OC(F)(F)F)c2)N(c2ccc(C(F)(F)F)cc2)C1=O)c1ccnc(C2CC2)n1` [Example 2, (3R,5R)-3-[1-(2-Cyclopropyl-pyrimidin-4-yl)-1-methyl-ethylamino]-5-(3-trifluoromethoxy-phenyl)-1-(4-trifluoromethyl-phenyl)-pyrrolidin-2-one], the results for the Kb on hCB-1 [1] and on hCB-2 [2] were 0.644 nM and over 10800 nM, respectively. Besides, the EC50 at hCB-1 [3] was 2.39 nM; at hCB-2 [4], over 10800 nM. The “hCB-1 SPA GTPγS CHO Membrane Agonist % Relative Efficacy” value at hCB-1 [3] is given as −108%. In addition, the “Risk of Drug Drug Interaction (DDI) CYP3A” value in the data set on CYP3A was “low (a reduction in metabolite peak area of less than 30% (relative to the uninhibited control incubation) receives a designation of low risk of Drug Drug Interaction (DDI))”. In addition, the “Risk of Drug Drug Interaction (DDI) CYP2D6” value at CYP2D6 is recorded as “low (a reduction in metabolite peak area of less than 30% (relative to the uninhibited control incubation) receives a designation of low risk of Drug Drug Interaction (DDI))”. Also, the “Risk of Drug Drug Interaction (DDI) CYP2C9” value on CYP2C9 is “low (a reduction in metabolite peak area of less than 30% (relative to the uninhibited control incubation) receives a designation of low risk of Drug Drug Interaction (DDI))”.
